{
  "source": "patent US20120190703A1",
  "about": "“SALTS OF 13A-(S)DESOXYTYLOPHORININE, PREPARATION METHODS AND PHARMACEUTICAL COMPOSITIONS AND USES THEREOF” (priority 2009, published 2012)",
  "key": {"Solubility in water": {"test": "Solubility in water", "assay_type": "physicochemical"}, "[1]": {"test": "Plasma pharmacokinetics after oral administration in mice", "protocol": "To determine the pharmacokinetic characters of 13a-(S)-deoxytylophorinine and its salts, the studies about plasma pharmacokinetics and the character of distribution in brain were pursued.\n(§1) Male ICR mice. Body weight 18˜22 g.\n(+)-13a-(S)-deoxytylophorinine Tartrate, (+)-13a-(S)-deoxytylophorinine Maleate, (+)-13a-(S)-deoxytylophorinine Citrate. All were dissolved in distilled water as 0.6 mg/ml solution before experiment progressed.\n72 mice were divided to 3 groups with 24 animals per group, fasting for 16 h and drinking water freely. […] Plasma was isolated by centrifugalization. After the salts were administered orally, the brain tissues of mice were collected at 5 min, 15 min, 2 h time points. 25% tissue homogenate was prepared with normal saline addition. 200 μL of homogenate and plasma were added isovolumic MeCN to precipitate protein. 5 μL of clear supernatant was analyzed by LC/MS/MS.\n(+)-13a-(S)-deoxytylophorinine was dissolved in DMSO and then diluted with MeOH with concentration 10, 50, 100, 500, 1000 and 2500 ng/ml respectively. 10 μl of standard solutions of (+)-13a-(S)-deoxytylophorinine with different concentration above were added to 200 μl of blank plasma sequently to adjust the concentration to 0.5, 2.5, 5, 25, 50, 125 ng/ml respectively. MeCN was added to the solution to precipitate protein, and 5 μl of result clear supernatant was analyzed with LC/MS/MS. Linear regression was ran with the peak area of (+)-13a-(S)-deoxytylophorinine as ordinate and the concentrations as abscissa."}, "H22 tumor-bearing mice": {"system": "H22 tumor-bearing mice", "conditions": "intragastric once daily", "excerpt": "To determine the pharmacodynamic characters of 13a-(S)-deoxytylophorinine and its salts, the impact of these compounds to the tumor growth in H22 tumor-bearing mice was surveyed.\nMale Kunming mice were obtained from the Laboratory Animal Center, Academy of Military Medical Science. Body weight 18˜22 g. 6 animals per group, totally 10 groups, 60 animals.\n(+)-13a-(S)-deoxytylophorinine, (+)-13a-(S)-deoxytylophorinine Tartrate, (+)-13a-(S)-deoxytylophorinine Maleate, (+)-13a-(S)-deoxytylophorinine Citrate, Cytoxane (CTX) as positive control.\n(+)-13a-(S)-deoxytylophorinine was administered at high dose (5 mg/kg) and low dose (2.5 mg/kg). Three (+)-13a-(S)-deoxytylophorinine salts were administered at high dose and low dose as equal moles with their prototype (Tartrate: 7.05 mg/kg, 3.53 mg/kg; Malate: 6.60 mg/kg, 3.30 mg/kg; Citrate: 7.90 mg/kg, 3.95 mg/kg).\nAnimals were reared in SPF grade circumstance to be observed for 24 h. The tumor cells liquid which resuscitated in abdominal cavity of KM mice was diluted with aseptic normal saline at 1:3 ratio. The resulting liquid was inoculated subcutaneously at forelimb with 0.2 mL every animal. After the injection over, the animals were divided to […] with 6 animals per group.\nFour experimental samples were intragastric administered once daily 24 h after inoculation. The positive control CTX was intraperitoneal injected once daily. The animal body weight was recorded every day."}, "[2]": {"test": "Drug distribution in brain tissue after oral administration in mice", "assay_type": "in vivo, ICR mice", "conditions": "for Brain contents of (+)-13a-(S)-deoxytylophorinine (ng/ml), Mean ± SD / Brain contents of (+)-13a-(S)-deoxytylophorinine (ng/ml), individual animals 1-3: 6 mg/kg oral", "protocol": "as §1\nPlasma was isolated by centrifugalization. […] 25% tissue homogenate was prepared with normal saline addition.\nThe drug concentration-time data in brain tissue after administered orally of (+)-13a-(S)-deoxytylophorinine tartrate, maleate and citrate were represented in Table 8˜10 and FIG. 6˜8. […] (+)-13a-(S)-deoxytylophorinine could be detected in 5 min. The peak concentration was reached after 15 min, and the compound still can be detected after 2 h after administration."}, "[3]": {"conditions": "6 mg/kg oral, mice, Time (min) 0.08"}, "[4]": {"conditions": "6 mg/kg oral, mice, Time (min) 0.25"}, "[5]": {"conditions": "6 mg/kg oral, mice, Time (min) 0.5"}, "[6]": {"conditions": "6 mg/kg oral, mice, Time (min) 1"}, "[7]": {"conditions": "6 mg/kg oral, mice, Time (min) 2"}, "[8]": {"conditions": "6 mg/kg oral, mice, Time (min) 3"}, "[9]": {"conditions": "6 mg/kg oral, mice, Time (min) 4"}, "[10]": {"conditions": "6 mg/kg oral, mice, Time (min) 6"}, "[11]": {"conditions": "male, ICR, mouse, plasma, po, 6 mg/kg"}, "[12]": {"conditions": "high dose × 7 d, equal moles: prototype 5.0, tartrate 7.05, maleate 6.60, citrate 7.90 mg/kg"}, "[13]": {"conditions": "low dose × 7 d, equal moles: prototype 2.5, tartrate 3.53, maleate 3.30, citrate 3.95 mg/kg"}},
  "note": "Where “and” joins values, the source holds several entries; their conditions need not be identical. Equal entries are not always repeated. Where two headings read alike, the source gives them in different places. Marks after values point to notes of the source that are not given here.",
  "data": [
    {"compound": "COc1ccc2c3c(c4cc(OC)c(OC)cc4c2c1)CN1CCC[C@H]1C3.O=C(O)/C=C\\C(=O)O", "note": "[Maleate, (+)-13a-(S)-deoxytylophorinine Maleate]", "values": [
      {"measurement": "Solubility in water (words)", "setting": "Solubility in water", "result": "soluble in water"},
      {"measurement": "solubility", "setting": "Solubility in water; water", "result": 44, "unit": "mg/mL"},
      {"measurement": "Peak concentration in blood", "setting": "[1]; 6 mg/kg oral, mice", "result": "35.4 ± 3.5", "unit": "ng/mL"},
      {"measurement": "Time of peak concentration in blood", "setting": "[1]; 6 mg/kg oral, mice", "result": 5, "unit": "min"},
      {"measurement": "t½z", "setting": "[1]; 6 mg/kg oral, mice, plasma, non-compartment model", "result": 1.72, "unit": "h"},
      {"measurement": "Blood concentration of (+)-13a-(S)-deoxytylophorinine (ng/ml), Mean ± SD", "setting": "[1]; [3]", "result": "35.4 ± 3.5", "unit": "ng/mL"},
      {"measurement": "Blood concentration of (+)-13a-(S)-deoxytylophorinine (ng/ml), individual animals 1-3", "setting": "[1]; [3]", "result": "33.0 ng/mL and 37.9 ng/mL"},
      {"measurement": "Blood concentration of (+)-13a-(S)-deoxytylophorinine (ng/ml), Mean ± SD", "setting": "[1]; [4]", "result": "27.4 ± 6.2", "unit": "ng/mL"},
      {"measurement": "Blood concentration of (+)-13a-(S)-deoxytylophorinine (ng/ml), individual animals 1-3", "setting": "[1]; [4]", "result": "24.2 ng/mL and 23.5 ng/mL and 34.6 ng/mL"},
      {"measurement": "Blood concentration of (+)-13a-(S)-deoxytylophorinine (ng/ml), Mean ± SD", "setting": "[1]; [5]", "result": "12.2 ± 4.0", "unit": "ng/mL"},
      {"measurement": "Blood concentration of (+)-13a-(S)-deoxytylophorinine (ng/ml), individual animals 1-3", "setting": "[1]; [5]", "result": "15.7 ng/mL and 13.0 ng/mL and 7.9 ng/mL"},
      {"measurement": "Blood concentration of (+)-13a-(S)-deoxytylophorinine (ng/ml), Mean ± SD", "setting": "[1]; [6]", "result": "9.2 ± 3.2", "unit": "ng/mL"},
      {"measurement": "Blood concentration of (+)-13a-(S)-deoxytylophorinine (ng/ml), individual animals 1-3", "setting": "[1]; [6]", "result": "12.5 ng/mL and 6.2 ng/mL and 8.7 ng/mL"},
      {"measurement": "Blood concentration of (+)-13a-(S)-deoxytylophorinine (ng/ml), Mean ± SD", "setting": "[1]; [7]", "result": "11.2 ± 8.0", "unit": "ng/mL"},
      {"measurement": "Blood concentration of (+)-13a-(S)-deoxytylophorinine (ng/ml), individual animals 1-3", "setting": "[1]; [7]", "result": "2.0 ng/mL and 15.9 ng/mL and 15.7 ng/mL"},
      {"measurement": "Blood concentration of (+)-13a-(S)-deoxytylophorinine (ng/ml), Mean ± SD", "setting": "[1]; [8]", "result": "8.6 ± 6.6", "unit": "ng/mL"},
      {"measurement": "Blood concentration of (+)-13a-(S)-deoxytylophorinine (ng/ml), individual animals 1-3", "setting": "[1]; [8]", "result": "3.6 ng/mL and 16.1 ng/mL and 6.3 ng/mL"},
      {"measurement": "Blood concentration of (+)-13a-(S)-deoxytylophorinine (ng/ml), Mean ± SD", "setting": "[1]; [9]", "result": "2.8 ± 0.9", "unit": "ng/mL"},
      {"measurement": "Blood concentration of (+)-13a-(S)-deoxytylophorinine (ng/ml), individual animals 1-3", "setting": "[1]; [9]", "result": "2.6 ng/mL and 2.0 ng/mL and 3.8 ng/mL"},
      {"measurement": "Blood concentration of (+)-13a-(S)-deoxytylophorinine (ng/ml), Mean ± SD", "setting": "[1]; [10]", "result": "1.2 ± 1.0", "unit": "ng/mL"},
      {"measurement": "Blood concentration of (+)-13a-(S)-deoxytylophorinine (ng/ml), individual animals 1-3", "setting": "[1]; [10]", "result": "2.3 ng/mL and 1.0 ng/mL and 0.4 ng/mL"},
      {"measurement": "AUC(0-inf)", "setting": "[1]; [11]", "result": 49.9, "unit": "ng·h/mL"},
      {"measurement": "AUC(0-t)", "setting": "[1]; [11]", "result": 46.9, "unit": "ng·h/mL"},
      {"measurement": "Cmax", "setting": "[1]; [11]", "result": 35.5, "unit": "ng/mL"},
      {"measurement": "MRT inf", "setting": "[1]; [11]", "result": 2.18, "unit": "h"},
      {"measurement": "MRT last", "setting": "[1]; [11]", "result": 1.78, "unit": "h"},
      {"measurement": "Tmax", "setting": "[1]; [11]", "result": 4.8, "unit": "min"},
      {"measurement": "Animal No. (Initial/Final)", "setting": "H22 tumor-bearing mice; [12]", "result": "6/4"},
      {"measurement": "Body Weight(g) Final", "setting": "H22 tumor-bearing mice; [12]", "result": "13.62 ± 2.08", "unit": "g"},
      {"measurement": "Body Weight(g) Initial", "setting": "H22 tumor-bearing mice; [12]", "result": "21.17 ± 0.98", "unit": "g⁻¹"},
      {"measurement": "Inhibition (%)", "setting": "H22 tumor-bearing mice; [12]", "result": "73.58** %"},
      {"measurement": "Tumor Weight (g, mean ± SD)", "setting": "H22 tumor-bearing mice; [12]", "result": "0.30 ± 0.24", "unit": "g"},
      {"measurement": "Animal No. (Initial/Final)", "setting": "H22 tumor-bearing mice; [13]", "result": "6/6"},
      {"measurement": "Body Weight(g) Final", "setting": "H22 tumor-bearing mice; [13]", "result": "23.79 ± 0.52", "unit": "g"},
      {"measurement": "Body Weight(g) Initial", "setting": "H22 tumor-bearing mice; [13]", "result": "22.50 ± 1.05", "unit": "g⁻¹"},
      {"measurement": "Inhibition (%)", "setting": "H22 tumor-bearing mice; [13]", "result": 45.56, "unit": "%"},
      {"measurement": "Tumor Weight (g, mean ± SD)", "setting": "H22 tumor-bearing mice; [13]", "result": "0.62 ± 0.31", "unit": "g"},
      {"measurement": "Brain contents of (+)-13a-(S)-deoxytylophorinine (ng/ml), Mean ± SD", "setting": "[2]; Time (min) 5", "result": "150.2 ± 84.8", "unit": "ng/mL"},
      {"measurement": "Brain contents of (+)-13a-(S)-deoxytylophorinine (ng/ml), individual animals 1-3", "setting": "[2]; Time (min) 5", "result": "245.2 ng/mL and 82.5 ng/mL and 122.7 ng/mL"},
      {"measurement": "Brain contents of (+)-13a-(S)-deoxytylophorinine (ng/ml), Mean ± SD", "setting": "[2]; Time (min) 15", "result": "150.3 ± 49.8", "unit": "ng/mL"},
      {"measurement": "Brain contents of (+)-13a-(S)-deoxytylophorinine (ng/ml), individual animals 1-3", "setting": "[2]; Time (min) 15", "result": "159.3 ng/mL and 96.6 ng/mL and 194.9 ng/mL"},
      {"measurement": "Brain contents of (+)-13a-(S)-deoxytylophorinine (ng/ml), Mean ± SD", "setting": "[2]; Time (min) 120", "result": "108.8 ± 74.7", "unit": "ng/mL"},
      {"measurement": "Brain contents of (+)-13a-(S)-deoxytylophorinine (ng/ml), individual animals 1-3", "setting": "[2]; Time (min) 120", "result": "27.2 ng/mL and 173.7 ng/mL and 125.4 ng/mL"},
      {"measurement": "Drug contents in brain compared with prototype", "setting": "[2]; oral, 3 time points", "result": "higher than their prototype"}
    ]}
  ]
}
